Experimental data as given in ChEMBL document CHEMBL1201862, “PubChem BioAssay data set” (2004).
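Assay format: 96-well plates, 48-hour exposure. Abbreviation: GI50, concentration required for 50% inhibition of growth.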 Active and inactive are the calls of the source. Cut-off read from the data, not from the text of the source: active = GI50 up to about 1.1 µM and inactive = higher.

How the values were obtained:
Experiment in all cases: inhibition of tumour cell growth, NCI panel, 48 h
786-0 = tested on: 786-0
A498 = tested on: A498
A549 = tested on: A549
ACHN = tested on: ACHN
CAKI-1 = tested on: CAKI-1
CCRF-CEM = tested on: CCRF-CEM
COLO 205 = tested on: COLO 205
DLD-1 = tested on: DLD-1
DMS-114 = tested on: DMS-114
DMS-273 = tested on: DMS-273
EKVX = tested on: EKVX
HCT-116 = tested on: HCT-116
HCT-15 = tested on: HCT-15
HL-60 = tested on: HL-60
HOP-62 = tested on: HOP-62
HOP-92 = tested on: HOP-92
HT-29 = tested on: HT-29
IGROV-1 = tested on: IGROV-1
K562 = tested on: K562
KM-20L2 = tested on: KM-20L2
KM12 = tested on: KM12
LOX IMVI = tested on: LOX IMVI
LXFL 529 = tested on: LXFL 529
M14 = tested on: M14
M19-MEL = tested on: M19-MEL
MOLT-4 = tested on: MOLT-4
Malme-3M = tested on: Malme-3M
NCI-H226 = tested on: NCI-H226
NCI-H23 = tested on: NCI-H23
NCI-H460 = tested on: NCI-H460
NCI-H522 = tested on: NCI-H522
OVCAR-3 = tested on: OVCAR-3
OVCAR-4 = tested on: OVCAR-4
OVCAR-5 = tested on: OVCAR-5
OVCAR-8 = tested on: OVCAR-8
RPMI-8226 = tested on: RPMI-8226
RXF 393 = tested on: RXF 393
RXF 631 = tested on: RXF 631
SF-268 = tested on: SF-268
SF-295 = tested on: SF-295
SF-539 = tested on: SF-539
SK-MEL-28 = tested on: SK-MEL-28
SK-MEL-2 = tested on: SK-MEL-2
SK-MEL-5 = tested on: SK-MEL-5
SK-OV-3 = tested on: SK-OV-3
SN12C = tested on: SN12C
SNB-19 = tested on: SNB-19
SNB-75 = tested on: SNB-75
SR = tested on: SR
SW-620 = tested on: SW-620
TK-10 = tested on: TK-10
U-251 = tested on: U-251
UACC-257 = tested on: UACC-257
UACC-62 = tested on: UACC-62
UO-31 = tested on: UO-31

## NC(=O)c1cc([N+](=O)[O-])cc([N+](=O)[O-])c1 [NITROMIDE]
786-0
  GI50: > 100 µM (inactive)
A498
  GI50: > 100 µM (inactive)
A549
  GI50: > 100 µM (inactive)
ACHN
  GI50: > 100 µM (inactive)
CAKI-1
  GI50: > 100 µM (inactive)
CCRF-CEM
  GI50: > 100 µM (inactive)
COLO 205
  GI50: 30.3 µM (inactive)
DLD-1
  GI50: > 100 µM (inactive)
DMS-114
  GI50: 38.5 µM (inactive)
DMS-273
  GI50: > 100 µM (inactive)
EKVX
  GI50: > 100 µM (inactive)
HCT-116
  GI50: > 100 µM (inactive)
HCT-15
  GI50: > 100 µM
HL-60
  GI50: 40.9 µM (inactive)
HOP-62
  GI50: > 100 µM (inactive)
HOP-92
  GI50: > 100 µM (inactive)
HT-29
  GI50: > 100 µM (inactive)
IGROV-1
  GI50: > 100 µM (inactive)
K562
  GI50: > 100 µM (inactive)
KM-20L2
  GI50: > 100 µM (inactive)
KM12
  GI50: > 100 µM (inactive)
LOX IMVI
  GI50: > 100 µM (inactive)
LXFL 529
  GI50: > 100 µM (inactive)
M14
  GI50: > 100 µM (inactive)
M19-MEL
  GI50: 22.4 µM (inactive)
MOLT-4
  GI50: > 100 µM (inactive)
Malme-3M
  GI50: 69.3 µM (inactive)
NCI-H226
  GI50: > 100 µM (inactive)
NCI-H23
  GI50: > 100 µM (inactive)
NCI-H460
  GI50: > 100 µM (inactive)
NCI-H522
  GI50: > 100 µM (inactive)
OVCAR-3
  GI50: > 100 µM (inactive)
OVCAR-4
  GI50: > 100 µM (inactive)
OVCAR-5
  GI50: > 100 µM (inactive)
OVCAR-8
  GI50: > 100 µM (inactive)
RPMI-8226
  GI50: > 100 µM (inactive)
RXF 393
  GI50: > 100 µM (inactive)
RXF 631
  GI50: > 100 µM (inactive)
SF-268
  GI50: > 100 µM (inactive)
SF-295
  GI50: > 100 µM (inactive)
SF-539
  GI50: > 100 µM (inactive)
SK-MEL-28
  GI50: > 100 µM (inactive)
SK-MEL-2
  GI50: > 100 µM (inactive)
SK-MEL-5
  GI50: > 100 µM (inactive)
SK-OV-3
  GI50: > 100 µM (inactive)
SN12C
  GI50: > 100 µM (inactive)
SNB-19
  GI50: > 100 µM (inactive)
SNB-75
  GI50: > 100 µM (inactive)
SR
  GI50: > 100 µM (inactive)
SW-620
  GI50: > 100 µM (inactive)
TK-10
  GI50: > 100 µM (inactive)
U-251
  GI50: > 100 µM (inactive)
UACC-257
  GI50: > 100 µM (inactive)
UACC-62
  GI50: 96.8 µM (inactive)
UO-31
  GI50: > 100 µM (inactive)
